Patent US10576151B2, “Ciclopirox for use in modulation of glucose homeostasis” (UNIVERSITY OF SOUTH CAROLINA, priority 2015, dated 2020)

Key:
diabetic mice = conditions: cited from earlier work
BiP, GRP94 and CHOP = experiment: Western blot of ER stress markers in islets in culture; format: cell-based, mouse; conditions: islets exposed to increasing amounts of iron citrate alone (FIG. 12A)
Experimental: (§1) Western Blotting. The mouse islets were treated with CPX 20 μM for 24 h and lysed in RIPA buffer [50 mM Tris, pH 7.2; 150 mM NaCl; 1% sodium deoxycholate; 0.1% SDS; 1% Triton-X 100; 10 mM NaF; 1 mM Na3VO4; protease inhibitor cocktail (1:1000, Sigma, St. Louis, Mo.)] and were subjected to immunoblot analysis by standard methods. Proteins were resolved on a 10% SDS-PAGE and transferred to a nitrocellulose membrane (Bio-Rad, Hercules, Calif.). Membranes were probed overnight with GADD153 (F-168), sc-575 from Santa Cruz Biotechnology (1:50); p21 (F-5), sc-6246 from Santa Cruz Biotechnology (1:200); actin, clone C4 MAB1501 from Millipore (Billerica, Mass., USA) (1:2000); BiP antibody (cat. no. 3183) from Cell Signaling (Danvers, Mass., USA) (1:1000); GRP94 antibody (H-212), sc-11402 from Santa Cruz Biotechnology (1:500); insulin rabbit polyclonal H-86, sc-9168 from Santa Cruz Biotechnology (1:500) antibodies followed by incubation with horseradish peroxidase-conjugated (HRP) anti-mouse (1:10000), goat anti-rabbit IgG (1:10000, Santa Cruz biotechnology Inc., Santa Cruz, Calif., USA) for 1 hr. After incubation with enhanced chemiluminescence reagents (Santa Cruz biotechnology Inc.), membranes were analyzed using an Image J software for Windows.
(§2) In order to understand better how CPX operates in β cells, it was tested to determine if it affected the efficiency by which insulin is produced following glucose stimulation. […] In view of the antidiabetic activity of CPX in vivo, the inhibition of insulin release appears contradictory. […]
(§3) While modulation of insulin release by CPX constitutes a challenging mechanism by which CPX may affect ER stress, how CPX regulates insulin expression remains obscure. […] To test this hypothesis, islets were exposed to iron citrate, alone or combined with CPX, and the levels were recorded of chaperones BiP, GRP94 and CHOP, as well as of insulin.

insulin = experiment: Western blot of insulin levels in islets in culture; format: cell-based, mouse; conditions: islets exposed to increasing amounts of iron citrate alone (FIG. 12A)
Experimental: as §1, §2, §3

In the case of `COc1ccc(C2=N[C@@H](c3ccc(Cl)cc3)[C@@H](c3ccc(Cl)cc3)N2C(=O)N2CCNC(=O)C2)c(OC(C)C)c1` [nutlin-3a], the effect on diabetes (diabetic mice; mice, stimulation of p53/p21 activity) is given as “beneficial for diabetes in mice” and the “response of diabetes to treatment” value (diabetic mice; p21-deficient diabetic mice) is given as “unresponsive to nutlin-3a”.

With iron citrate the “ER stress-markers BiP, GRP94 and CHOP” value (BiP, GRP94 and CHOP) was “induced ER stress-markers BiP, GRP94 and CHOP” and the insulin production (insulin) was “triggered insulin production”.
